# Results reported in patent publication EP2363494A9, “Improvement of transfection results of non-viral gene delivery systems by influencing the congenital immune system” (Biontex Laboratories Gmbh, priority 2007, dated 2009).
# Like-named read-outs stand apart in the source and are kept apart here.
# Tests used:
# [1] = test system: HeLa-Luc Zellen; test: Trypan blue vitality determination after siRNA transfection in presence of TLR7/8 agonists (Beispiel 9); format: cell-based; settings: Trypanblau after 48 h, Blindprobe 95,9
# Method: Zunächst werden die ersten 5 Wells der ersten 3 Reihen einer 48 Well Platte mit jeweils 30 µl PBS gefüllt. Die Stocklösung der anti-Luciferase-siRNA und der non-specific-control-siRNA wird mit PBS auf eine Konzentration von 1 pmol/10 µl eingestellt. Anschließend werden jeweils 10 µl der Arbeitslösung der anti-Luciferase-siRNA in die ersten 3 Wells der der ersten drei Reihen der 48 Well Platte pipettiert. In die jeweils vierten Wells werden jeweils 10 µl der Arbeitslösung der non-specific-control-siRNA pipettiert. Das Metafectene Pro Reagenz wird mit PBS 1:300 verdünnt. Von dieser Verdünnung werden jeweils 20 µl in jedes Well mit siRNA gegeben. Anschließend werden die Lipoplexe für 20 Minuten bei Raumtemperatur inkubiert. Danach werden pro Well 250 µl Zellsuspension zugegeben. Analog wird eine zweite Platte bestückt.
# In die ersten 2 Spalten der beiden 48 Well Platte werden 2 verschiedene Agonisten hinzugegeben. Dabei werden 3 verschiedene Arbeitskonzentrationen der Agonisten verwendet. Die Agonisten liegen lyophilisiert vor. Sie werden mit endotoxin-freiem Wasser zu Stocklösungen mit der Konzentration 100µg/ml gelöst. Die Stocklösungen werden jeweils 1:10 mit Wasser zu Arbeitslösungen verdünnt.
# Von der ssRNA40/LyoVec-Arbeitslösung werden in B1 0,78 µl (=0,5 µg/ml Endkonzentration ssRNA40), in B2 15,5 µl (=5µg/ml) und in B3 31µl (=10µg/ml) pipettiert. Nach der Zugabe der Agonisten werden die beiden 48 Well Platten für 48 Stunden im CO2-Inkubator inkubiert.
# Nach einer Inkubationszeit von 48 Stunden werden die Zellen einer Platte trypsiniert und mittels einer Neubauer-Zählkammer eine Vitalitätbestimmung mit Trypanblau für jedes Well durchgeführt.
# Es wurden zwischen 40 und 70 Zellen ausgewertet.
# [2] = test system: HeLa-Luc Zellen; test: Luciferase assay after anti-Luciferase siRNA transfection in presence of TLR7/8 agonists (Beispiel 9); format: cell-based; settings: 48 h
# Method: Anschließend werden 120 µl Luciferase-Lysispuffer hinzugegeben.
# Alle Messungen wurden dreifach durchgeführt.
# Von der Imiquimod-Arbeitslösung werden in A1 0,78 µl (=0,25 µg/ml Endkonzentration), in A2 15,5 µl (=5µg/ml) und in A3 31 µl (=10µg/ml) pipettiert. Von der ssRNA40/LyoVec-Arbeitslösung werden in B1 0,78 µl (=0,5 µg/ml Endkonzentration ssRNA40), in B2 15,5 µl (=5µg/ml) und in B3 31µl (=10µg/ml) pipettiert. Nach der Zugabe der Agonisten werden die beiden 48 Well Platten für 48 Stunden im CO2-Inkubator inkubiert.
# [3] = test system: HeLa-Luc Zellen; test: Luciferase assay after anti-Luciferase siRNA transfection in presence of kinase inhibitors (Beispiel 8); settings: 2 h before anti-Luciferase-siRNA/Metafectene Pro lipoplex
# [4] = test system: HeLa Zellen; settings: Vorinkubationszeit 2h, inhibitor replaced and transfection repeated on day 3, Entwicklungszeit 10 min, 0µM well 0,63
# Method: Die Effizienz der Transfektion wird mit dem β-Galaktosidase Assay Kit nach Vorgaben des Herstellers durchgeführt. Die Platten werden so lange entwickelt bis im Mikroplate-Reader eine Gelbfärbung mit einer Absorption von 1-2 gemessen wird und anschließend sofort gestoppt. Die Inkubationszeit wird anschließend notiert. Die Werte werden mit dem Mikroplate-Reader ausgelesen, und der Mittelwert gebildet.
# 1. Tag: Es werden HeLa Zellen in eine 48 Well Platte ausgesät.
# 1 mg Inhibitor wird in 100 µl DMSO gelöst (Stocklösung). Anschließend wird mit PBS 1:20 verdünnt (Arbeitslösung). Anschließend werden die Wells der 48 Well Platte mit folgenden Mengen Inhibitor versorgt:
# Anschließend werden die Lipoplexe hergestellt. […] Jetzt werden beide Lösungen gemischt und 15 min inkubiert. Am Ende werden jeweils 50 µl der Lipoplexlösung in jedes Well gegeben.
# Die Schritte Lipoplexherstellung und Transfektion werden ohne Inkubationszeit wiederholt.
# Analog Beispiel 1 (mit halben Mengen)
compound,measurement,setting,value
"CC(C)Cn1cnc2c(N)nc3ccccc3c21 [Imiquimod, 1-(2-methylpropyl)-1H-imidazol[4,5-c]quinolin-4-amine]",Vitalität,"[1]; Imiquimod 0,5µg/ml + anti-Luciferase-siRNA/Metafectene Pro","98,6%"
same,Vitalität,[1]; Imiquimod 5µg/ml + anti-Luciferase-siRNA/Metafectene Pro,"88,7%"
same,Vitalität,[1]; Imiquimod 10µg/ml + anti-Luciferase-siRNA/Metafectene Pro,"88,6%"
same,"Luciferase Assay, Mittelwert von 3x3","[2]; Imiquimod 0,25 µg/ml Endkonzentration (0,5µg/ml in the 30th table) + anti-Luciferase-siRNA/Metafectene Pro, same plate row: siRNA alone 1604, non-specific control 3016, blank 2936",676 RLU/µl Zellextrakt/sec
same,"Luciferase Assay, Mittelwert von 3x3","[2]; Imiquimod 5µg/ml + anti-Luciferase-siRNA/Metafectene Pro, same plate row: siRNA alone 1302, non-specific control 2753, blank 2673",349 RLU/µl Zellextrakt/sec
same,"Luciferase Assay, Mittelwert von 3x3","[2]; Imiquimod 10µg/ml + anti-Luciferase-siRNA/Metafectene Pro, same plate row: siRNA alone 1481, non-specific control 2822, blank 2476",116 RLU/µl Zellextrakt/sec
C[S+]([O-])c1ccc(-c2nc(-c3ccncc3)c(-c3ccc(F)cc3)[nH]2)cc1 (stereo not shown) [SB203580],"Luciferase Assay, Mittelwert von 3x3 Messungen","[3]; SB203580 5µM, one transfection, 0µM 1027, non-specific-control-siRNA 2029, untransfected 2504",693 RLU/µl Zellextrakt/sec
same,"Luciferase Assay, Mittelwert von 3x3 Messungen","[3]; SB203580 5µM, transfection repeated on day 3, 0µM 976, non-specific-control-siRNA 2135, untransfected 2531",696 RLU/µl Zellextrakt/sec
same,"Luciferase Assay, Mittelwert von 3x3 Messungen","[3]; SB203580 10µM, one transfection, 0µM 1027, non-specific-control-siRNA 2029, untransfected 2504",747 RLU/µl Zellextrakt/sec
same,"Luciferase Assay, Mittelwert von 3x3 Messungen","[3]; SB203580 10µM, transfection repeated on day 3, 0µM 976, non-specific-control-siRNA 2135, untransfected 2531",656 RLU/µl Zellextrakt/sec
same,"Luciferase Assay, Mittelwert von 3x3 Messungen","[3]; SB203580 20µM, one transfection, 0µM 1027, non-specific-control-siRNA 2029, untransfected 2504",630 RLU/µl Zellextrakt/sec
same,"Luciferase Assay, Mittelwert von 3x3 Messungen","[3]; SB203580 20µM, transfection repeated on day 3, 0µM 976, non-specific-control-siRNA 2135, untransfected 2531",617 RLU/µl Zellextrakt/sec
same,"Luciferase Assay, Mittelwert von 3x3 Messungen","[3]; SB203580 30µM, one transfection, 0µM 1027, non-specific-control-siRNA 2029, untransfected 2504",671 RLU/µl Zellextrakt/sec
same,"Luciferase Assay, Mittelwert von 3x3 Messungen","[3]; SB203580 30µM, transfection repeated on day 3, 0µM 976, non-specific-control-siRNA 2135, untransfected 2531",587 RLU/µl Zellextrakt/sec
same,"Luciferase Assay, Mittelwert von 3x3 Messungen","[3]; SB203580 40µM, one transfection, 0µM 1027, non-specific-control-siRNA 2029, untransfected 2504",669 RLU/µl Zellextrakt/sec
same,"Luciferase Assay, Mittelwert von 3x3 Messungen","[3]; SB203580 40µM, transfection repeated on day 3, 0µM 976, non-specific-control-siRNA 2135, untransfected 2531",610 RLU/µl Zellextrakt/sec
"N#CC(=C(/N)Sc1ccccc1N)/C(C#N)=C(/N)Sc1ccccc1N [U0126, 1,4-Diamino-2,3-dicyano-1,4-bis(o-amionophenylmercapto)butadiene]","Absorption β-Galaktosidase Assay, Mittelwert von 3 Messungen",[4]; 5µM inhibitor,"0,72"
same,"Absorption β-Galaktosidase Assay, Mittelwert von 3 Messungen",[4]; 10µM inhibitor,"0,92"
same,"Absorption β-Galaktosidase Assay, Mittelwert von 3 Messungen",[4]; 25µM inhibitor,"0,79"
same,"Absorption β-Galaktosidase Assay, Mittelwert von 3 Messungen",[4]; 50µM inhibitor,"0,90"
same,"Absorption β-Galaktosidase Assay, Mittelwert von 3 Messungen",[4]; 75µM inhibitor,"0,97"
same,"Luciferase Assay, Mittelwert von 3x3 Messungen","[3]; U0126 5µM, one transfection, 0µM 1157, non-specific-control-siRNA 1829, untransfected 1674",375 RLU/µl Zellextrakt/sec
same,"Luciferase Assay, Mittelwert von 3x3 Messungen","[3]; U0126 5µM, transfection repeated on day 3, 0µM 1001, non-specific-control-siRNA 2290, untransfected 2249",641 RLU/µl Zellextrakt/sec
same,"Luciferase Assay, Mittelwert von 3x3 Messungen","[3]; U0126 10µM, one transfection, 0µM 1157, non-specific-control-siRNA 1829, untransfected 1674",567 RLU/µl Zellextrakt/sec
same,"Luciferase Assay, Mittelwert von 3x3 Messungen","[3]; U0126 10µM, transfection repeated on day 3, 0µM 1001, non-specific-control-siRNA 2290, untransfected 2249",162 RLU/µl Zellextrakt/sec
same,"Luciferase Assay, Mittelwert von 3x3 Messungen","[3]; U0126 25µM, one transfection, 0µM 1157, non-specific-control-siRNA 1829, untransfected 1674",268 RLU/µl Zellextrakt/sec
same,"Luciferase Assay, Mittelwert von 3x3 Messungen","[3]; U0126 25µM, transfection repeated on day 3, 0µM 1001, non-specific-control-siRNA 2290, untransfected 2249",179 RLU/µl Zellextrakt/sec
same,"Luciferase Assay, Mittelwert von 3x3 Messungen","[3]; U0126 50µM, one transfection, 0µM 1157, non-specific-control-siRNA 1829, untransfected 1674",193 RLU/µl Zellextrakt/sec
same,"Luciferase Assay, Mittelwert von 3x3 Messungen","[3]; U0126 50µM, transfection repeated on day 3, 0µM 1001, non-specific-control-siRNA 2290, untransfected 2249",171 RLU/µl Zellextrakt/sec
same,"Luciferase Assay, Mittelwert von 3x3 Messungen","[3]; U0126 75µM, one transfection, 0µM 1157, non-specific-control-siRNA 1829, untransfected 1674",260 RLU/µl Zellextrakt/sec
same,"Luciferase Assay, Mittelwert von 3x3 Messungen","[3]; U0126 75µM, transfection repeated on day 3, 0µM 1001, non-specific-control-siRNA 2290, untransfected 2249",103 RLU/µl Zellextrakt/sec
